Reference: the supplement of paper PMC4862054

Experiments:
Details in all cases: incubation time: 72 h
HCC1143 [1] = assay: drug sensitivity score (DSS), CellTiter-Blue viability (DSS (AUC-based score)); higher = stronger viability inhibition; extreme values may be limits of the assay
Method: (§1)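 DSRT with the CellTiter-Blue (resazurin reduction) viability readout, fluorescence 560/590 nm, 72 h incubation. Plates were normalised to DMSO and benzethonium chloride controls. DSS is computed from the area under the fitted dose-response curve (5 or 9 concentrations).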

MFM-223 [2] = assay: as above
Method: as §1

SK-BR-3 [3] = assay: as above
Method: as §1

BT-474 = assay: as above
Method: as §1

HCC1599 [4] = assay: as above
Method: as §1

CAL-85-1 [5] = assay: as above
Method: as §1

MDA-MB-436 [6] = assay: as above
Method: as §1

MDA-MB-231 [7] = assay: as above
Method: as §1

HDQ-P1 [8] = assay: as above
Method: as §1

HCC1143 [9] = assay: normalised viability (% of control), CellTiter-Blue; higher = more viable cells (about 100 = DMSO control)
In short: (§2)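 The reported figure is normalised viability at a single listed concentration of the series. Breast cancer cell lines (20 µl suspension) went onto 384-well plates holding compound in 5 µl medium for 72 h. CellTiter-Blue (2.5 µl, 2 h, 37 °C) was read by fluorescence at 560/590 nm, and each plate was scaled to vehicle at 100 and a positive kill control at 0.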

MFM-223 [10] = assay: as above
In short: as §2

SK-BR-3 [11] = assay: as above
In short: as §2

CAL-148 = assay: as above
In short: as §2

HCC1599 [12] = assay: as above
In short: as §2

BT-549 = assay: as above
In short: as §2

CAL-85-1 [13] = assay: as above
In short: as §2

MDA-MB-436 [14] = assay: as above
In short: as §2

CAL-120 = assay: as above
In short: as §2

HCC1937 = assay: as above
In short: as §2

MDA-MB-468 = assay: as above
In short: as §2

MDA-MB-231 [15] = assay: as above
In short: as §2

HDQ-P1 [16] = assay: as above
In short: as §2

DU-4475 = assay: as above
In short: as §2

MDA-MB-453 = assay: as above
In short: as §2

O=C(O)CC[C@H]1CC[C@@](c2cc(F)ccc2F)(S(=O)(=O)c2ccc(Cl)cc2)CC1 [MK-0752]
Details	drug sensitivity score
BT-474	0
CAL-85-1 [5]	0
HCC1143 [1]	0
HCC1599 [4]	2.93
HDQ-P1 [8]	0
MDA-MB-231 [7]	0
MDA-MB-436 [6]	0
MFM-223 [2]	0
SK-BR-3 [3]	0

normalised viability [%]
Details	0.3 nM	1 nM	3 nM	10 nM	100 nM	1000 nM
BT-549	–	93.4	–	–	80.3	99.1
CAL-85-1 [13]	98.7	–	82.4	103	–	–
CAL-120	–	90.2	–	–	97.2	95.7
CAL-148	99.1	–	109	111	–	–
DU-4475	115	–	91.5	101	–	–
HCC1143 [9]	–	81.5	–	–	108	89.4
HCC1599 [12]	–	98.2	–	–	81.8	74.7
HCC1937	–	96	–	–	86.9	92.1
HDQ-P1 [16]	122	–	96.5	115	–	–
MDA-MB-231 [15]	–	97.7	–	–	92.5	89.7
MDA-MB-436 [14]	–	109	–	–	92.2	111
MDA-MB-453	113	–	107	125	–	–
MDA-MB-468	–	98.9	–	–	94.9	110
MFM-223 [10]	–	103	–	–	94.3	97.9
SK-BR-3 [11]	–	106	–	–	105	111

N[C@@H](Cc1ccc(N(CCCl)CCCl)cc1)C(=O)O [Melphalan]
Details	drug sensitivity score
BT-474	0
CAL-85-1 [5]	0
HCC1143 [1]	0
HCC1599 [4]	0
HDQ-P1 [8]	0
MDA-MB-231 [7]	0
MDA-MB-436 [6]	0
MFM-223 [2]	0
SK-BR-3 [3]	0

normalised viability [%]
Details	0.297 nM	0.99 nM	2.97 nM	9.9 nM	99 nM	990 nM
BT-549	–	92.7	–	–	115	89.3
CAL-85-1 [13]	94.8	–	91.2	96.6	–	–
CAL-120	–	74.3	–	–	71.6	64.3
CAL-148	92.6	–	94.5	91.4	–	–
DU-4475	101	–	84.1	92.8	–	–
HCC1143 [9]	–	67.8	–	–	70.3	67.8
HCC1599 [12]	–	102	–	–	82.1	90.7
HCC1937	–	89	–	–	64.2	39.5
HDQ-P1 [16]	117	–	94	91.2	–	–
MDA-MB-231 [15]	–	91.1	–	–	97.7	91.5
MDA-MB-436 [14]	–	88.2	–	–	90	75.4
MDA-MB-453	105	–	101	102	–	–
MDA-MB-468	–	95.7	–	–	99.7	63
MFM-223 [10]	–	90	–	–	84.7	99.3
SK-BR-3 [11]	–	94.6	–	–	98.8	50.6

CO[C@H]1C[C@@H]2CC[C@@H](C)[C@@](O)(O2)C(=O)C(=O)N2CCCC[C@H]2C(=O)O[C@H]([C@H](C)C[C@@H]2CC[C@@H](O)[C@H](OC)C2)CC(=O)[C@H](C)/C=C(\C)[C@@H](O)[C@@H](OC)C(=O)[C@H](C)C[C@H](C)/C=C/C=C/C=C/1C [Sirolimus]
Details	drug sensitivity score
BT-474	0
CAL-85-1 [5]	17
HCC1143 [1]	10.1
HCC1599 [4]	9.43
HDQ-P1 [8]	13.2
MDA-MB-231 [7]	0
MDA-MB-436 [6]	0
MFM-223 [2]	21.3
SK-BR-3 [3]	15.4

normalised viability [%]
Details	0.3 nM	1 nM	3 nM	10 nM	100 nM	1000 nM
BT-549	–	55.6	–	–	57.5	45.2
CAL-85-1 [13]	86.1	–	58.2	66	–	–
CAL-120	–	79.6	–	–	53.4	47.3
CAL-148	96.1	–	53.9	53.3	–	–
DU-4475	99.1	–	61.4	65.8	–	–
HCC1143 [9]	–	90.3	–	–	71.6	71.4
HCC1599 [12]	–	88.4	–	–	56.7	75.3
HCC1937	–	58	–	–	46.3	59
HDQ-P1 [16]	88.9	–	66.3	71.3	–	–
MDA-MB-231 [15]	–	74	–	–	62.8	87
MDA-MB-436 [14]	–	93.3	–	–	84.5	87.2
MDA-MB-453	86.1	–	34.2	32.2	–	–
MDA-MB-468	–	70.2	–	–	65.3	69.5
MFM-223 [10]	–	56.2	–	–	47.5	47.1
SK-BR-3 [11]	–	84.8	–	–	48.4	43
